# Assay results from patent EP1935986B1, “Luminogenic and fluorogenic compounds and methods to detect molecules or conditions” (priority 2005, dated 2006).
# pIC50: −log10 of the molar value. Several values for one entry are separate records, joined by “and”; a condition that tells them apart may be missing. Equal values may be shown once.
# What was measured:
# [1] = system: human recombinant flavin-containing monooxygenase 1 (FMO 1); experiment: Two-step luminescent FMO assay with luciferin derivative; assay type: biochemical; conditions: Table 32; CHES pH 9.5, NADPH regeneration, 4 hours room temperature; duplicates
# luciferase = experiment: No-enzyme control: activity of luciferase towards the luciferin derivative (background luminescence); conditions: Table 32; microsomes from wild type baculovirus infected insect cells instead of FMO; CHES pH 9.5, 4 hours; duplicates
# [2] = system: human recombinant flavin-containing monooxygenase 3 (FMO 3); experiment: Two-step luminescent FMO assay with luciferin derivative; assay type: biochemical; conditions: Table 32; CHES pH 9.5, NADPH regeneration, 4 hours room temperature; duplicates
# CYP2D6 = biological target: T1, CYP2D6 (Homo sapiens, UniProt P10635); experiment: Screening inhibitors of CYP2D6 with luciferin-6-methylether ethylene glycol ester (IC50); assay type: biochemical; conditions: substrate luciferin-6-methylether ethylene glycol ester
# T1 construct: purchased Discovery Labware (BD/Gentest); host or cells: insect cell expression system (membrane fractions)
# T1 sequence (P10635 whole entry): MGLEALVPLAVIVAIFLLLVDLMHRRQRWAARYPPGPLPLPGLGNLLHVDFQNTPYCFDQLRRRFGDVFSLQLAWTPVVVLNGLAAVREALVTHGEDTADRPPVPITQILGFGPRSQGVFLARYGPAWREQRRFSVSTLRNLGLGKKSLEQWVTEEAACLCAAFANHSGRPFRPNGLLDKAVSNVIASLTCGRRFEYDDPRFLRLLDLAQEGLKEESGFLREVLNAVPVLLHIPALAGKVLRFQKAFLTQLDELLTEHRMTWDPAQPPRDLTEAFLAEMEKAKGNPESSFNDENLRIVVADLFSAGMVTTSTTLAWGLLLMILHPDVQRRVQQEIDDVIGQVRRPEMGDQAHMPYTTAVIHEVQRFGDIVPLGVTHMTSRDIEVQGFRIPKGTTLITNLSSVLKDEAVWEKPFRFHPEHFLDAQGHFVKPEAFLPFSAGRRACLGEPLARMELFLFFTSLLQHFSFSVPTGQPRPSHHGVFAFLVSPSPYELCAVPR
# [3] = biological target: T2, human recombinant monoamine oxidase A (MAO A) (Homo sapiens, UniProt P21397); design: purchased Sigma Chemical Company M-7316; host or cells: baculovirus infected insect cells (microsomes); conditions: read-out: published values MAO A; cited from earlier work
# T2 sequence (P21397 1-527): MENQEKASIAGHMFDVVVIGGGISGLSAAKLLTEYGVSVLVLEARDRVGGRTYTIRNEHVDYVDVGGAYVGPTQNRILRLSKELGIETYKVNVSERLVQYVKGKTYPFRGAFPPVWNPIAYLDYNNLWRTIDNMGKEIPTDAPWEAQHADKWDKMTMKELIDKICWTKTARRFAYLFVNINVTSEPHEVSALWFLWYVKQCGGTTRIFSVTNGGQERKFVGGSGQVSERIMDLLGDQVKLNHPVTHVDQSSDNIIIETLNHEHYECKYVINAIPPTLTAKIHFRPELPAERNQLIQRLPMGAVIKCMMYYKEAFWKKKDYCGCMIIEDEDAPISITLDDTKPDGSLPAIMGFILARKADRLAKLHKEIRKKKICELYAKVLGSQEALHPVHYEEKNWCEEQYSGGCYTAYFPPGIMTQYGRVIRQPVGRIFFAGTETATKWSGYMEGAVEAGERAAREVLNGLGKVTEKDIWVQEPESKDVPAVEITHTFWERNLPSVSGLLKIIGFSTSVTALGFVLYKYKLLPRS
# [4] = biological target: T3, human recombinant monoamine oxidase B (MAO B) (Homo sapiens, UniProt P27338); conditions: published values; cited from earlier work
# T3 construct: purchased Sigma Chemical Company M-7441; host or cells: baculovirus infected insect cells (microsomes)
# T3 sequence (P27338 1-520): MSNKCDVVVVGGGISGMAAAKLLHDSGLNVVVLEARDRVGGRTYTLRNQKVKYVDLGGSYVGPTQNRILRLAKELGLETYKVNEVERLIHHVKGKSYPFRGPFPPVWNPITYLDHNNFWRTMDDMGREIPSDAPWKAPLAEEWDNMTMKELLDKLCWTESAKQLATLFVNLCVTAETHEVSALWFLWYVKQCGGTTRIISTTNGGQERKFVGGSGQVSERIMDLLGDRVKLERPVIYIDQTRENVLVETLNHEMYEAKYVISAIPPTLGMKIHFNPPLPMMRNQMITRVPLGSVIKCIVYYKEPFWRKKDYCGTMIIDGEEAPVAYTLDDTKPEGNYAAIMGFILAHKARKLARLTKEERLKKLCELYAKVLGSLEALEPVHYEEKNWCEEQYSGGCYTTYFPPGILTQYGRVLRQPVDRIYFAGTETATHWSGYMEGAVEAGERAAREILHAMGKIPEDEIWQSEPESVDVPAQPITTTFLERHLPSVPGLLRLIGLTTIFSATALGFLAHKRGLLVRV
compound,measurement,setting,value
"CCSCCOc1ccc2nc(C3=N[C@@H](C(=O)O)CS3)sc2c1 [FMO-2, 6-(2-ethylthioethoxy)-luciferin]",RLUs FMO 1,[1],11.778 RLUs and 12.006 RLUs
same,RLUs control,luciferase,8.7102 RLUs and 8.5489 RLUs
same,RLUs FMO 3,[2],12.194 RLUs and 10.425 RLUs
N=C(N)N1CCc2ccccc2C1 [debrisoquine],pIC50,CYP2D6,4.11
NCCc1ccccc1 [phenethylamine],pIC50,[3],3.55 to 4.11
same,pIC50,[4],3.82 to 5.70
